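Values below derive from 48-hour exposures of cells grown in 96-well plates, with endpoints linearly interpolated between the two concentrations bracketing the appropriate inhibition level. GI50: concentration for 50% inhibition of growth.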 Calls of active or inactive are those of the source. No stated cut-off is given here; in the data, active = GI50 up to about 1.1 µM and inactive = higher.
Tests used:
Assay in all cases: NCI tumour cell line growth inhibition, 48 h
A498 = tested on: A498
A549 = tested on: A549
CAKI-1 = tested on: CAKI-1
CCRF-CEM = tested on: CCRF-CEM
DU-145 = tested on: DU-145
IGROV-1 = tested on: IGROV-1
MDA-MB-231 = tested on: MDA-MB-231
Malme-3M = tested on: Malme-3M
NCI-H522 = tested on: NCI-H522
OVCAR-4 = tested on: OVCAR-4
OVCAR-8 = tested on: OVCAR-8
PC-3 = tested on: PC-3
RXF 393 = tested on: RXF 393
SK-MEL-28 = tested on: SK-MEL-28
SK-MEL-2 = tested on: SK-MEL-2
SK-OV-3 = tested on: SK-OV-3
SNB-19 = tested on: SNB-19
SW-620 = tested on: SW-620
TK-10 = tested on: TK-10
UO-31 = tested on: UO-31

Measured: GI50

COC(=O)C1=COC2OC3CC1C2C(C)O3 (stereo not given)
inactive: A498 > 100 µM | A549 > 100 µM | CAKI-1 > 100 µM | CCRF-CEM > 100 µM | DU-145 > 100 µM | IGROV-1 > 100 µM | MDA-MB-231 > 100 µM | Malme-3M > 100 µM | NCI-H522 > 100 µM | OVCAR-4 > 100 µM | OVCAR-8 > 100 µM | PC-3 > 100 µM | RXF 393 > 100 µM | SK-MEL-28 > 100 µM | SK-MEL-2 > 100 µM | SK-OV-3 > 100 µM | SNB-19 > 100 µM | SW-620 > 100 µM | TK-10 > 100 µM | UO-31 > 100 µM

COC(=O)[C@@H](NC1(c2ccccc2)c2ccccc2-c2ccccc21)[C@@H](C(=O)OC)N(NC(=O)OCc1ccccc1)C(=O)OCc1ccccc1.COC(=O)[C@@H](NC1(c2ccccc2)c2ccccc2-c2ccccc21)[C@H](C(=O)OC)N(NC(=O)OCc1ccccc1)C(=O)OCc1ccccc1
inactive: A498 > 100 µM | A549 > 100 µM | CAKI-1 > 100 µM | CCRF-CEM > 100 µM | DU-145 > 100 µM | IGROV-1 > 100 µM | MDA-MB-231 > 100 µM | Malme-3M 27.4 µM | NCI-H522 29.2 µM | OVCAR-4 > 100 µM | OVCAR-8 > 100 µM | PC-3 > 100 µM | RXF 393 > 100 µM | SK-MEL-28 > 100 µM | SK-MEL-2 > 100 µM | SK-OV-3 > 100 µM | SNB-19 > 100 µM | SW-620 > 100 µM | TK-10 > 100 µM | UO-31 > 100 µM

Reference: ChEMBL document CHEMBL1201862, “PubChem BioAssay data set” (2004)
